The results in this text go back to patent publication US7410663B2, “Oil or fat composition” (Kao Corporation, priority 2002, dated 2008).

The target of one data set is T1, PPARγ (Homo sapiens, UniProt P37231).
T1 construct: expressed in transfected cells; host or cells: IEC-6 small intestine epithelial cell line
T1 sequence (P37231 238-503 limits assumed): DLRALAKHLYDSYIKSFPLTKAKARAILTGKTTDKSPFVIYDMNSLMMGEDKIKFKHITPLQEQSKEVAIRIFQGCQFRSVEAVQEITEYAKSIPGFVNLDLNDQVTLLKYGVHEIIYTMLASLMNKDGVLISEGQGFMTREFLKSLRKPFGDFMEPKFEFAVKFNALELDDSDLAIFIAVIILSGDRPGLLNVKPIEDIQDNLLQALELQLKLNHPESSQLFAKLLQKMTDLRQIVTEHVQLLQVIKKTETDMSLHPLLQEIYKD
Nature of the data set: Test on PPARγ activation (GAL4-PPARγ-LBD luciferase reporter in IEC-6 cells). The class given is cell-based. The following applies: control set at 100, test substance 500 μM, 24 hours. On the technique in general: In a reporter assay the amount or activity of a reporter protein is the signal.

Data set [1] is described as follows: Evaluation of gelling properties. The class given is physicochemical. Also on record: key: A: The mixture lacks fluidity and is gelled.; B: The mixture has low fluidity and is gelled slightly.; C: The mixture has fluidity and is partially gelled.; D: The mixture has fluidity and is not gelled at all. The settings on record: 70:30 (weight/weight) mixture of oil or fat composition and water, visually observed. An excerpt:
Gelling properties of a 70:30 (weight/weight) mixture of each oil or fat composition and water were visually observed and evaluated based on the below-described criteria. The results are shown in Table 1. • A: The mixture lacks fluidity and is gelled. • B: The mixture has low fluidity and is gelled slightly. • C: The mixture has fluidity and is partially gelled. • D: The mixture has fluidity and is not gelled at all.

Data set [2] can be described thus: Evaluation of rancid odor (organoleptic). Also on record: key: A: The sample is almost free from a rancid odor and the odor does not cause discomfort.; B: The sample emits a little rancid odor, but the odor causes little discomfort.; C: The sample emits a rancid odor and the odor causes discomfort.; D: The sample emits a severe rancid odor and the odor causes extreme discomfort. The class given is physicochemical. The following applies: oil or fat composition:water=70:30, room temperature for 1 week, smelled. As for the experimental part: Each sample (each oil or fat composition:water=70:30) prepared in Example 3 was allowed to stand at room temperature for 1 week. The sample was smelled and organoleptic evaluation of rancid odor was performed based on the below-described criteria.

Protocol for PPARγ: The small intestine epithelial cell line IEC-6 was inoculated on a 12 well plate and cultured in DMEM (5% FCS) for 24 hours. A plasmid (pGAL4-PPARγ-LBD) expressing the chimeric molecules of a GAL4-DNA binding domain (DBD) and a PPARγ ligand binding domain (LBD) and a reporter plasmid (pREP) containing a GAL4 binding sequence upstream of a firefly luciferase gene were introduced simultaneously by using a transfection reagent (“QIAGEN”; Superfect transfection reagent), each in an amount of 0.5 μg/well. In order to monitor the transfection efficiency, a renilla luciferase gene was incorporated in the pGAL4-PPARγ-LBD at the same time. The culture broth was then replaced with a DMEM (+250 μM BSA) medium containing a test substance (500 μM), followed by incubation for further 24 hours. After washing with PBS, the cells were lysed using dual luciferase assay system (product of Promega Corporation). To the resulting lysate was added a substrate solution containing luciferin, and firefly and renilla luciferase activities were measured by a luminometer. In the above-described manner, the PPARγ activating capacity was evaluated by measuring the transcriptional activity (luciferase activity) of the PPARγ-dependent gene. It is to be noted that the PPARγ-dependent gene transcriptional activity (luciferase activity) was defined as described below. […]

For the molecule `CC/C=C\C/C=C\C/C=C\C/C=C\C/C=C\CCCC(=O)O` [Oil or Fat Composition 7, Eicosapentaenoic acid], the “PPARγ (PPARγ-dependent transcriptional activity, luciferase, relative to control)” value at PPARγ is reported as 480. Moreover, in data set [1], the Gelling properties result was “D”. In data set [2], the Rancid odor result is “D”.
As for `CC/C=C\C/C=C\C/C=C\C/C=C\C/C=C\C/C=C\CCC(=O)O` [Oil or Fat Composition 8, Docosahexaenoic acid], the “PPARγ (PPARγ-dependent transcriptional activity, luciferase, relative to control)” value on PPARγ is listed as 508. Further, the Gelling properties entry in data set [1] was “D”. Besides, the Rancid odor entry in data set [2] is “D”.
